Experimental data as given in patent US8658684B2, “Pharmaceutical composition and its use in the preparation of a medicament for the treatment of cerebrovascular diseases” (Jiangsu Simcere Pharmaceutical R & D Co., Ltd., priority 2008, dated 2014).

Key:
[1] = system: cerebral ischemia/reperfusion model rats; test: Focal cerebral ischemia/reperfusion model, Edaravone versus combinations 2:1, 4:1, 9:1 (Example 18); type: in vivo, Wistar rats
Experimental: 1.1 Animals: Healthy male Wistar rats weighing 280-320 g.
1.2 Drugs and Reagents: Edaravone for injection (2 mg/mL) of Example 1, and Edaravone+natural borneol for injection of Examples 5, 7 and 11.
Experimental methods and evaluation methods are the same as Example 13.

New Zealand rabbits = test: Repeated intravenous toxicity in rabbits: hematuria, gross necropsy, histopathology (Example 19); type: in vivo; details: for incidence of hematuria: marginal ear vein once daily, 6 rabbits
Experimental: 1.1 Animals: 36 New Zealand rabbits, general grade, with body weight of 2.0-3.0 kg, 18 ♂ and 18 ♀(female and male) respectively.
1.2 Drugs and Reagents: drugs obtained from Examples 12, 13, 14 and 15; 1,2-propylene glycol, 0.9% sodium chloride injection.
Edaravone 80 mg/kg (propylene glycol content: 40%)
Edaravone 20 mg/kg (propylene glycol content: 10%)
Combined Edaravone 120 mg/kg (propylene glycol content: 50%)
Combined Edaravone 30 mg/kg (propylene glycol content: 10%)
Combined Edaravone in this Example refers to Edaravone+natural borneol (weight ratio=2:1).
In the above dosage groups, the dosage per day per rabbit was calculated according to actual weight of each rabbit. The test drugs were administrated in equal volume according to body weight of respective rabbits.
36 rabbits were numbered and randomly divided into six groups according to the body weight, including 4 dosage groups, “Edaravone+natural borneol (weight ratio=2:1)” 120 mg/kg, 30 mg/kg; “Edaravone” 80 mg/kg, 20 mg/kg; as well as vehicle group (40% propylene glycol solution) and solvent group (0.9% sodium chloride injection). There were 6 rabbits in each group, including 3 males and 3 females each. Rabbits were habituated and observed for 3 days before the test. During the test, rabbits were dosed once at the same time in each morning via marginal ear vein injection. Rabbits in high dosage groups were continuously dosed for 13 days, while in low dosage groups, solvent group and vehicle group for 20 days. The dosage were regulated in accordance with body weight variation. Animal responses, stimulations at injection sites and histopathological examination in kidneys and injection site were used to comprehensively evaluate the toxicity of either combined Edaravone or Edaravone on the rabbits.

[2] = system: focal cerebral ischemia reperfusion model rats; test: Focal cerebral ischemia reperfusion model in rats, intraperitoneal dosing (Example 16); type: in vivo, Wistar rats; details: for Cerebral infarction size (%): 2 h ischemia, 24 h reperfusion, i.p. twice (30 min before ischemia, 12 h after reperfusion), combination 0.5+0.25 mg/kg, control 35.7 ± 7.52; for Cerebral infarction size (%) / neurological deficit score (points) / Cerebral water content (%): Edaravone 1.0 mg/kg, natural borneol 0.5 mg/kg, mean ± SD; for neurological deficit score (points): Longa 5-point scoring 24 h after reperfusion, control 3.1 ± 1.05; for neurological deficit score (points) / Cerebral water content (%): combination 0.5+0.25 mg/kg i.p. twice; for Cerebral water content (%): dry and wet method after ischemia/reperfusion, sham 78.41, control 82.19; for cerebral edema / cerebral water content compared with control group: single drugs P<0.05, combination P<0.01; for effect on symptoms of neurological deficits: versus control group, doses as Table 1
Experimental: 1.1 Animals: healthy male Wistar rats weighing 280-320 g.
1.2 Drugs and Reagents: Edaravone for injection (2 mg/mL) of Example 1, natural borneol injection (2 mg/mL) of Example 3 and Edaravone+natural borneol injection of Example 5.
Main steps are described as follows. Rats were anesthetized with 10% chloral hydrate (350 mg/kg, i.p.). Right external carotid was separated, ligated and severed. A nylon thread with rounded tip was inserted slowly for about 18 mm in depth into the residual end of right external carotid and through common carotid and internal carotid to induce ischemia by blocking the origin of middle cerebral artery. After ischemia for 2 h, the nylon thread was removed for reperfusion for 24 h. Animals in the sham group were treated identically to those in the model group, except that a nylon thread was just used to separate the artery. Manifestation of Homer's symptom and opposite lateral body dyskinesia after animal revival means a successful modelling.
Experimental animals were randomly divided into five groups, including sham group, control group and drug groups. Animals in drug groups were intraperitoneally injected twice, 30 min before ischemia and 12 h after reperfusion. Animals in sham group and control group were each injected with equal volume of normal saline instead.
Neurological deficit scoring: Behavioral evaluation was performed 24 h after reperfusion according to Longa 5-point scoring system.
Determination of cerebral infarction size: Animals were decapitated to get the brain after the last neurological deficit scoring. Rhinencephalon, lower brain stem and cerebella were removed, and the remaining brains were immediately weighted to obtain wet weights. The brains were sectioned coronally into five slices with substantially identical thickness on ice, then incubated in 2,3,5-triphenyl tetrazolium chloride for 30 min at 37° C. Normal brain tissues appeared rose, while infarction areas appeared white. Next, brain slices were fixed in 10% formaldehyde, and white tissues were carefully removed and weighed. Infarction size was determined by the percentage of infracted tissue weight in the total cerebral weight.
Determination of cerebral water content: Cerebral water contents were determined by dry and wet method. Animals were sacrificed to get the whole brain. Rhinencephalon, lower brain stem and cerebella were removed and the wet weight of the remaining brains was determined immediately. Dry weight was obtained after baking in a oven for about 18 h at 120° C. Cerebral water content was calculated according to the following equation: Cerebral water content (%)=(cerebral wet weight−cerebral dry weight)/cerebral wetweight×100.

[3] = system: MCAO cerebral ischemia/reperfusion model rats; test: Middle cerebral artery occlusion (MCAO) cerebral ischemia/reperfusion model, internal carotid thread method (Example 17); type: in vivo, Wistar rats; details: Edaravone+natural borneol total 0.75 mg/kg, Nimodipine 0.4 mg/kg single dosage, mean ± SD, n=8
Experimental: 1.2 Drugs and Reagents: Edaravone+natural borneol for injection of Examples 5, 8 and 9.
Middle cerebral artery occlusion (MCAO), a cerebral ischemia/reperfusion model, was prepared using the internal carotid thread method. Animals were anesthetized with 10% chloral hydrate (3.5 mL/kg), and then fixed on the operation table in prone position. The skin was disinfected and the neck was incised from the midline. Right common carotid, external carotid and internal carotid were separated, and vagus nerve was separated carefully. The external carotid was ligated and severed. Moved forward along the internal carotid, and then pterygopalatine artery was ligated. The proximal part of common carotid was clamped and a cut was made at the distal end of the external carotid ligature. A nylon thread with the outer diameter of 0.285 mm was inserted into the cut, through the branch of common carotid and then into internal carotid slowly until a slight resistance was met (about 20 mm distance from the divergence point). […] Cerebral blood flow was monitored by using laser Doppler cerebral flowmetry. After ischemia in the right brain for 2.0 h, the nylon thread was withdrawn slowly and then blood supply was recovered for reperfusion. The scalp was sutured and disinfected. In the sham group, only the blood vessels were separated without the insertion of a nylon thread. During the operation, rat heating plate and desk lamp with 60 W were used to keep the body temperature of rats at 37.0±0.5° C. […]
Neurological deficit scoring: neurological deficit symptoms were evaluated according to modified Bederson scoring system of 5-point. Neurological deficit symptoms after cerebral trauma in rats were evaluated by using single-blinded method. That is, the experiment designer labeled the animals in groups, while the experiment performer who scored neurological deficit symptoms were blinded for animals grouping. […]

[4] = Edaravone 80 and 20 mg/kg groups, combined Edaravone 120 and 30 mg/kg groups

CC1=NN(c2ccccc2)C(=O)C1 [Edaravone, 3-methyl-1-phenyl-2-pyrazolin-5-one]
neurological deficit symptoms score ([1]; Edaravone 3 mg/kg, combination dose not given, mean ± SD, n=8, model 2.7 ± 0.5): 0.94 ± 0.46 | cerebral infarction area ([1]; Edaravone 3 mg/kg, combination dose not given, mean ± SD, n=8, model 25.4 ± 14.8): 9.7 ± 4.6 | brain lesion ([1]; Edaravone 3 mg/kg, combination dose not given, mean ± SD, n=8, model 32.2 ± 15.1): 11.6 ± 9.7 | cerebral infarction area compared with model group ([1]; F4,35=4.62, P=0.03, 4:1 and 9:1 P=0.081): significantly reduced | severity of brain lesion compared with model group ([1]; F4,35=5.78, P=0.04, 4:1 and 9:1 P=0.159): significantly reduced | gross necropsy: rabbits with a swollen kidney (New Zealand rabbits; 20 mg/kg i.v. daily, 20 days): 3 of 6 | incidence of hematuria (New Zealand rabbits; 20 mg/kg, 20 days, propylene glycol 10%): 100% | gross necropsy: liver finding (New Zealand rabbits; 80 mg/kg i.v. daily, 13 days): one of the rabbits suffered hepatonecrosis and had a khaki and hard liver | gross necropsy: rabbits with khaki and swollen kidney having uneven surface (New Zealand rabbits; 80 mg/kg i.v. daily, 13 days): 3 of 6 | incidence of hematuria (New Zealand rabbits; 80 mg/kg, 13 days, propylene glycol 40%): 100% | histopathological examination: injection sites (New Zealand rabbits; [4]): stimulatory changes such as vascular occlusion to varied extents | histopathological examination: kidney (New Zealand rabbits; [4]): progressive renal lesion such as renal tubular lesion, inflammatory infiltration of mesenchyme, and glomerular lesion | Cerebral infarction size (%) [2]: 18.0 ± 5.29 % | neurological deficit score (points) [2]: 2.5 ± 1.02 points | Cerebral water content (%) [2]: 81.65 ± 1.24 % | cerebral edema / cerebral water content compared with control group [2]: significant effect | effect on symptoms of neurological deficits [2]: Neither Edaravone alone nor natural borneol alone had significant effect

CC1(C)C2CCC1(C)C(O)C2 (stereo not shown) [Natural borneol, dextro-camphol]
Cerebral infarction size (%) [2]: 19.8 ± 6.37 % | neurological deficit score (points) [2]: 2.0 ± 0.98 points | Cerebral water content (%) [2]: 81.25 ± 0.97 % | cerebral edema / cerebral water content compared with control group [2]: significant effect | effect on symptoms of neurological deficits [2]: Neither Edaravone alone nor natural borneol alone had significant effect

COCCOC(=O)C1=C(C)NC(C)=C(C(=O)OC(C)C)C1c1cccc([N+](=O)[O-])c1 (stereo not shown) [Nimodipine]
neurological deficit symptoms score ([3]; modified Bederson 5-point score, four administrations (0, 2, 4, 24 h after ischemia), model 2.6 ± 0.52): 1.1 ± 0.58 | brain lesion ([3]; percentage of brain lesion by formazan absorbance at 485 nm, model 33.2 ± 14.8): 11.6 ± 5.0 | cerebral infarction area ([3]; percentage of infarction area by TTC image analysis, model 27.4 ± 13.4): 8.8 ± 4.0
